Assay [1] relates to glycosyltransferase (GTF); dextran sucrase of Leuconostoc mesenteroides. In words: GTF enzyme assay: insoluble dextran formation followed by turbidity at 690 nm. It counts as biochemical. Particulars: positive controls: TRIS 2, 10, 100 mM; DJM 10 mM.
For assay [2], the system named is S. mutans biofilm. In words: S. mutans biofilm formation on hydroxyl apatite discs in Modified Robbins Devices, SYTO 9 fluorescence. Type of assay: cell-based, Streptococcus mutans. The conditions noted are these: FIG. 12; 5 μg/ml (sub-MIC). The text has this:
A first example illustrates the influence of extracts according to the invention on the development of a S. mutans biofilm. Hereby a model system for the study of biofilm formation on discs was used. The system comprises the irrigation of a growing medium and micro-organisms on discs and to develop the formation of microbial biofilms thereon. The system permits to compare biomasses of biofilms which were and were not exposed to plant extracts according to the invention. Since teeth comprise hydroxyl apatite (HAP), discs comprising HAP (Clarkson Chromatography Products, South Williamsport, Pa., USA) were used for each experiment. […] Before starting biofilm experiments, the minimum inhibitory concentration (MIC value) was determined for each plant extract. […] Quantification of biofilm formation was done by putting the HAP discs in a microtiter plate, followed by staining the discs with a SYTO®9 solution, that stains the DNA of living bacteria as well as of dead bacteria. After an incubation period of approximately 15 minutes the microtiter plate was scanned in an automatic microtiter plate reader (Wallac 1420 Multilabel Counter (Victor^2™; Perkin Elmer Life and Analytical Sciences, Boston, Mass., USA) able to measure absorption as well as fluorescence and luminescence.

Structures are written as SMILES.

Consider `NC(CO)(CO)CO` [TRIS], for which the “absorption of formed dextran with known GTF inhibitors” value in assay [1] is listed as “decrease in absorption”. Consider `Cc1cc(O)c2c(c1)C(=O)c1cc(O)cc(O)c1C2=O` [emodin], for which the “average fluorescence values compared with positive control BHIS” value in assay [2] is recorded as “significantly lower that those of the positive control BHIS”. As for `OC[C@H]1NC[C@H](O)[C@@H](O)[C@@H]1O` [DJM, 1-deoxynojirimycine], the “absorption of formed dextran with known GTF inhibitors” value in assay [1] is on record as “decrease in absorption”.
